Test results as given in patent US20230227449A1, “AMIDOPYRIMIDONE DERIVATIVES” (Hoffmann-La Roche Inc., priority 2020, published 2023).
Where a name gives a salt, the structure may show the parent alone.

Biological target: Recombinant human Mat2a (Homo sapiens, UniProt P31153)
Assay: Determination of Mat2A activity (384 well absorbance-based assay, Biomol Green)
Format: biochemical
Conditions: 12.5 nM Mat2A, 100 μM ATP and Methionine, 2% DMSO, 120 minutes at RT, absorbance at 635 nm
Description: Determination of Mat2A activity
Measurement of Mat2A inhibition is performed in 384 well format absorbance-based assay. Recombinant human Mat2a (12.5 nM) and serial diluted compounds in DMSO (range of concentrations from […] to 508 pM) or controls (DMSO) are incubated for 15 minutes at room temperature (RT) in assay buffer containing 50 mM HEPES pH 7.5, 50 mM KCl, 50 mM MgCl2, 0.01% Tween 20 and 10 mM DTT. The reaction is initiated by the addition of the combined substrates ATP and Methionine, each at a final concentration of 100 μM. Final assay condition are 12.5 nM Mat2A, 100 μM ATP and Methionine Substrates and 2% DMSO. After 120 minutes of incubation at RT, the reaction is stopped by the addition of Biomol Green. The absorbance signal is measured at λ=635 nm with a multiplate reader (BMG Pherastar reader or equivalent) after 30 min of equilibration at RT.

Recombinant human Mat2a, sequence (P31153 whole entry): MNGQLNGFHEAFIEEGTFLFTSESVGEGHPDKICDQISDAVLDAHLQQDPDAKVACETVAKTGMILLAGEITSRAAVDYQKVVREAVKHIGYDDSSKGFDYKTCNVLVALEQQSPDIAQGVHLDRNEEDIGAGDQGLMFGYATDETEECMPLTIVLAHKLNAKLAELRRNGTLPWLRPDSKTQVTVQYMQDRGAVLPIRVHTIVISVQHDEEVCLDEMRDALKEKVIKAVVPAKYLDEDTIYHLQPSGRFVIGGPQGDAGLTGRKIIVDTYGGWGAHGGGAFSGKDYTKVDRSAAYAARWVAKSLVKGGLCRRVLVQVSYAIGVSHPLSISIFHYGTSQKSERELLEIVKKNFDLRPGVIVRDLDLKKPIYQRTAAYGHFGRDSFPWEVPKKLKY

| SMILES | IC50 [nM] |
| --- | --- |
| Nc1nc(=O)n(-c2cc(F)cc(F)c2)c2nc(C3CC3)ccc12 [Example 70, 4-amino-7-cyclopropyl-1-(3,5-difluorophenyl)pyrido[2,3-d]pyrimidin-2(1H)-one] | 66 |
| COc1cccc(-n2c(=O)nc(N)c3ccc(C4CC4)nc32)c1 [Example 71, 4-amino-7-cyclopropyl-1-(3-methoxyphenyl)pyrido[2,3-d]pyrimidin-2(1H)-one] | < 13 |
| COc1cccc(-n2c(=O)nc(N)c3ccc(C4CC4)nc32)n1 [Example 72, 4-amino-7-cyclopropyl-1-(6-methoxypyridin-2-yl)pyrido[2,3-d]pyrimidin-2(1H)-one] | < 13 |
| Nc1nc(=O)n(-c2cccc(F)c2F)c2nc(C3CC3)ccc12 [Example 73, 4-amino-7-cyclopropyl-1-(2,3-difluorophenyl)pyrido[2,3-d]pyrimidin-2(1H)-one] | < 13 |
| Nc1nc(=O)n(-c2ccccc2)c2nc(C3CC3)ccc12 [Example 74, 4-amino-7-cyclopropyl-1-phenylpyrido[2,3-d]pyrimidin-2(1H)-one] | 16 |
| C[C@H](c1cnco1)n1c(=O)nc(N)c2ccc(C3CC3)nc21 [Example 75, 4-amino-7-cyclopropyl-1-(1-(oxazol-5-yl)ethyl)pyrido[2,3-d]pyrimidin-2(1H)-one] | 99 |
| Cc1c(C#N)cccc1-n1c(=O)nc(N)c2ccc(C(F)(F)F)cc21 [Example 76, 3-(4-amino-2-oxo-7-(trifluoromethyl)quinazolin-1(2H)-yl)-2-methylbenzonitrile] | < 13 |
| Cc1c(C#N)cccc1-n1c(=O)nc(N)c2ccc(C(F)(F)F)nc21 [Example 77, 3-(4-amino-2-oxo-7-(trifluoromethyl)pyrido[2,3-d]pyrimidin-1(2H)-yl)-2-methylbenzonitrile] | < 13 |
| Nc1nc(=O)n(-c2c(F)cccc2F)c2nc(C3CC3)ccc12 [Example 78, 4-amino-7-cyclopropyl-1-(2,6-difluorophenyl)pyrido[2,3-d]pyrimidin-2(1H)-one] | < 13 |

More lines, now with the values ahead:

| IC50 [nM] | SMILES |
| --- | --- |
| < 13 | Nc1nc(=O)n(-c2ccccc2F)c2nc(C3CC3)ccc12 [Example 79, 4-amino-7-cyclopropyl-1-(2-fluorophenyl)pyrido[2,3-d]pyrimidin-2(1H)-one] |
| < 13 | Nc1nc(=O)n(-c2cccc(F)c2)c2nc(C3CC3)ccc12 [Example 80, 4-amino-7-cyclopropyl-1-(3-fluorophenyl)pyrido[2,3-d]pyrimidin-2(1H)-one] |
| 42 | CC(C1COC1)n1c(=O)nc(N)c2ccc(C3CC3)nc21 (stereo not drawn) [Example 81, 4-amino-7-cyclopropyl-1-[1-(oxetan-3-yl)ethyl]pyrido[2,3-d]pyrimidin-2-one] |
| 36 | CC(c1ccccn1)n1c(=O)nc(N)c2ccc(C3CC3)nc21 (stereo not drawn) [Example 82, 4-amino-7-cyclopropyl-1-(1-pyridin-2-ylethyl)pyrido[2,3-d]pyrimidin-2-one] |
| 32 | Cc1ncccc1-n1c(=O)nc(N)c2ccc(CC(F)(F)F)cc21 [Example 83, 4-amino-1-(2-methyl-3-pyridyl)-7-(2,2,2-trifluoroethyl)quinazolin-2-one hydrochloride] |
| 210 | Nc1nc(=O)n(C2CCOCC2)c2nc(C3CC3)ccc12 [Example 84, 4-amino-7-cyclopropyl-1-(tetrahydro-2H-pyran-4-yl)pyrido[2,3-d]pyrimidin-2(1H)-one] |
| < 13 | Nc1nc(=O)n(-c2cccnc2Cl)c2nc(C3CC3)ccc12 [Example 85, 4-amino-1-(2-chloropyridin-3-yl)-7-cyclopropylpyrido[2,3-d]pyrimidin-2(1H)-one] |
| < 13 | Cc1ncccc1-n1c(=O)nc(N)c2ccc(C3CC3)cc21 [Example 86, 4-amino-7-cyclopropyl-1-(2-methylpyridin-3-yl)quinazolin-2 (1H)-one] |
| 20 | Cc1ncccc1-n1c(=O)nc(N)c2c(Cl)cc(C(F)(F)F)cc21 [Example 87, 4-amino-5-chloro-1-(2-methylpyridin-3-yl)-7-(trifluoromethyl)quinazolin-2(1H)-one] |
